From patent US8058227B2, “Method of treating fibrosis in a subject in need thereof comprising administering a composition comprising a CSD” (Medical University of South Carolina, priority 2006, dated 2011)
Entries after “also recorded” stand apart in the source; their conditions may differ.

How the values were obtained:
[1] = tested on: bleomycin-induced lung fibrosis; experiment: Bleomycin-induced lung fibrosis and CSD treatment in mice; assay type: in vivo, mouse
Description: Extract from each mouse was analyzed by Western blotting (25 μg total protein per lane) using antibodies against ph-ERK, caveolin-1, PKCε, ASMA, PKCα, tenascin-C, ph-Akt, ph-JNK, and actin (loading control); and the results quantified densitometrically (averages±s.e.m. are shown). The level of each protein in “Saline” was set to 100 arbitrary units. Actin levels (loading control) were similar in all four samples (not shown). Statistical significance: ns, not significant; **p<0.01; ***p<0.001.
Masson's Trichrome-stained sections from the experiments described in FIG. 11 were used to evaluate the effects of bleomycin and the CSD peptide on collagen expression (blue product) and lung tissue morphology. […] To generate the table, Masson's Trichrome-stained slides of lung tissue from all 41 mice sacrificed 14 days after saline or bleomycin treatment were scored blind in terms of the portion of the lung with abnormal morphology using an arbitrary scale: Normal morphology as in A=0, slightly altered morphology as in B=1, moderately altered morphology as in C=2, and severely altered morphology as in D 3. Bar in C=0.1 mm.
This procedure was approved by the MUSC Institutional Animal Care & Use Committee. Ten-week old, male CD 1 mice (Charles River, Boston, Mass.) were anesthetized and received bleomycin (Calbiochem, La Jolla, Calif.) or saline solution by intratracheal instillation as previously described (44). Two approaches were used for CSD peptide treatment. In both approaches the peptide treatment was initiated one day prior to bleomycin. In the first approach, Alzet pumps delivering 0.5 μl/h for 14 days of a 1 mM solution of CSD peptide were implanted into twelve mice; twelve additional mice received no pump. In the second approach twelve mice received daily intraperitoneal injections of 100 μl of a 0.15 mM solution of the CSD peptide for 14 days; twelve additional mice received the scrambled peptide. One day later, six mice from each group of twelve received intratracheal bleomycin, six received saline. After 14 days, lungs were harvested. Half of each set of lungs was fixed, sectioned, and stained with Masson's Trichrome Stain. The other half of each set of lungs was dissolved in SDS-PAGE sample buffer for Western blotting experiments. Because very similar results were obtained using the two approaches to CSD peptide treatment, results were pooled.
Student's t test was used to analyze protein expression levels in lung tissue samples obtained from normal individuals and from scleroderma patients. Protein expression levels for samples obtained from in vitro experiments and from mice were analyzed by two-way analysis of variance (ANOVA) followed by the Bonferroni post-test. For experiments in which the degree of tissue damage in mice treated with bleomycin was scored on an arbitrary scale, data was analyzed using the Mann-Whitney rank sum test. In all tests, results were regarded as statistically significant if p<0.05.

[2] = tested on: eNOS; settings: endothelial cells; Bernatchez et al. (4); cited from earlier work
[3] = tested on: scleroderma lung fibroblasts (SLF); experiment: Immunocytochemistry and laser confocal microscopy of CSD peptide-treated SLF; assay type: cell-based, human
Description: NLF or SLF cultured in 4-well glass chamber slides (Nalge Nunc International, Naperville, Ill.) as previously described (43) were incubated with CSD peptide or scrambled (Scr) peptide, fixed, permeabilized, and stained red with 7-aminoactinomycin D to detect nuclei and green using appropriate primary and secondary antibodies to detect caveolin-1 or ph-ERK. Images were captured by confocal microscopy.
NLF or SLF cultured in 4-well glass chamber slides (Nalge Nunc International, Naperville, Ill.) as previously described (43) were incubated with CSD peptide or scrambled (Scr) peptide, fixed, permeabilized, and stained red with 7-aminoactinomycin D to detect nuclei and green using appropriate primary and secondary antibodies to detect ph-JNK or ph-Akt. Images were captured by confocal microscopy.
NLF and SLF were cultured in 4-well glass chamber slides (Nalge Nunc International, Naperville, Ill.) and stained as previously described (43) using the indicated primary antibodies and appropriate secondary antibodies tagged with Alexa Fluoro® 488 (Molecular Probes, Eugene, Oreg.). Nuclei were stained with 7-aminoactinomycin D (Molecular Probes, Eugene, Oreg.). Images were acquired using a Zeiss 510SML Laser Confocal Microscope (excitation S490/20, emission D528/38) fitted with an oil-immersion objective (40×/1.4).

[4] = tested on: normal lung fibroblasts (NLF); experiment: Collagen and ASMA expression in NLF treated with CSD and its subdomains; assay type: cell-based, human; settings: 3 μM peptide
Description: (§1) The indicated cell types (NLF and SLF) were cultured as described with 0, 1, 3, or 5 μM of the indicated peptides. Collagen in the medium and ASMA and actin (loading control) in the cell layer were detected by Western blotting. Blots were quantified densitometrically. The level of collagen and ASMA in cells treated with no peptide (divided by the level of actin) was set to 100 arbitrary units. Because SLF express higher levels of collagen and ASMA than do NLF, 100 arbitrary of collagen in SLF is equivalent to 195 arbitrary units of collagen in NLF and 100 arbitrary units of ASMA in SLF is equivalent to 255 arbitrary units of ASMA in NLF. The data presented are the average of the densitometric quantification of three independent experiments.
(§2) To compare the activity of CSD to its subdomains, five subdomains [A (82-88 amino acids), B (89-95), C (96-101), AB (82-95) and BC (89-101)] were synthesized in fusion with the Antennapedia internalization sequence and added to culture medium at 1, 3, and 5 μM. […] Very different results were obtained when examining ASMA expression.

[5] = tested on: scleroderma lung fibroblasts (SLF); experiment: Collagen and ASMA expression in SLF treated with CSD and its subdomains; assay type: cell-based, human
Description: as §1, §2

[6] = mouse lung tissue, Western blotting, 14 days

DGIWKASFTTFTVTKYWFYR [CSD peptide]
median weight loss ([1]; bleomycin-treated mice receiving peptide (30% in untreated mice)): 14 % of original weight | tissue damage and collagen deposition ([1]; bleomycin-treated mice, CSD peptide via Alzet pumps or intraperitoneal injection, 14 days, Masson's Trichrome): slight to moderate | survival and lung tissue morphology ([1]; bleomycin-treated mice, systemic treatment with the peptide): striking positive effect | expression of caveolin-1 itself ([1]; lung tissue of bleomycin-treated mice, Western blotting): did not affect | inhibition of bleomycin-induced decrease in PKCα [1, 6]: about 50% | inhibition of bleomycin-induced decrease in PKCε [1, 6]: at least 75% | inhibition of bleomycin-induced increase in ASMA [1, 6]: at least 75% | inhibition of bleomycin-induced increase in ph-Akt [1, 6]: at least 75% | inhibition of bleomycin-induced increase in ph-ERK [1, 6]: at least 75% | inhibition of bleomycin-induced increase in ph-JNK [1, 6]: at least 75% | inhibition of bleomycin-induced increase in tenascin-C [1, 6]: at least 75% | eNOS activity [2]: most strongly inhibited | level of caveolin-1 expression detected by IHC ([3]; CSD peptide vs Scr peptide): did not affect | distribution of caveolin-1 staining ([3]; CSD peptide vs Scr peptide, particularly in SLF): staining associated with the plasma membrane becoming more prominent | distribution of activated Akt staining ([3]; CSD peptide vs control peptide): preferentially decreased perinuclear, nuclear, and cytoplasmic staining while increasing staining associated with the plasma membrane | distribution of activated JNK staining ([3]; CSD peptide vs control peptide): preferentially decreased perinuclear staining and increased staining associated with the plasma membrane; also recorded: eliminated the intense punctate cytoplasmic staining | level of activated Akt (IHC) ([3]; CSD peptide vs control peptide): decreases | level of activated ERK (IHC) ([3]; CSD peptide vs control peptide): decreases | level of activated JNK (IHC) ([3]; CSD peptide vs control peptide): decreases | localization of residual activated ERK staining ([3]; after CSD peptide): primarily perinuclear and cytoplasmic | collagen expression [4]: completely inhibited | collagen expression ([5]; 3 μM peptide): completely inhibited | inhibition of ASMA expression ([5]; 5 μM peptide): about 80% | ASMA expression ([5]; peptides at 1, 3, and 5 μM): inhibited
